These results are taken from BindingDB's records for doi:10.1021/jm0502891 (Inotek Pharmaceuticals, 2005).

Broadly, the IC50 is the midpoint of a concentration-inhibition curve. A high value points to weaker potency in that assay.

The target in the assay is Poly [ADP-ribose] polymerase 1 (Homo sapiens, UniProt P09874). In words: PARP ELISA Assay. Conditions: pH 8; 22 °C. The protocol: The assay was performed in 96-well ELISA plates according to instructions provided with a commercially available PARP inhibition assay kit (Trevigen, Gaithersburg, MD). After incubation, incorporated biotin was detected by peroxidase-conjugated streptavidin and TACS Sapphire substrate.
Sequence of Poly [ADP-ribose] polymerase 1 (P09874 whole entry): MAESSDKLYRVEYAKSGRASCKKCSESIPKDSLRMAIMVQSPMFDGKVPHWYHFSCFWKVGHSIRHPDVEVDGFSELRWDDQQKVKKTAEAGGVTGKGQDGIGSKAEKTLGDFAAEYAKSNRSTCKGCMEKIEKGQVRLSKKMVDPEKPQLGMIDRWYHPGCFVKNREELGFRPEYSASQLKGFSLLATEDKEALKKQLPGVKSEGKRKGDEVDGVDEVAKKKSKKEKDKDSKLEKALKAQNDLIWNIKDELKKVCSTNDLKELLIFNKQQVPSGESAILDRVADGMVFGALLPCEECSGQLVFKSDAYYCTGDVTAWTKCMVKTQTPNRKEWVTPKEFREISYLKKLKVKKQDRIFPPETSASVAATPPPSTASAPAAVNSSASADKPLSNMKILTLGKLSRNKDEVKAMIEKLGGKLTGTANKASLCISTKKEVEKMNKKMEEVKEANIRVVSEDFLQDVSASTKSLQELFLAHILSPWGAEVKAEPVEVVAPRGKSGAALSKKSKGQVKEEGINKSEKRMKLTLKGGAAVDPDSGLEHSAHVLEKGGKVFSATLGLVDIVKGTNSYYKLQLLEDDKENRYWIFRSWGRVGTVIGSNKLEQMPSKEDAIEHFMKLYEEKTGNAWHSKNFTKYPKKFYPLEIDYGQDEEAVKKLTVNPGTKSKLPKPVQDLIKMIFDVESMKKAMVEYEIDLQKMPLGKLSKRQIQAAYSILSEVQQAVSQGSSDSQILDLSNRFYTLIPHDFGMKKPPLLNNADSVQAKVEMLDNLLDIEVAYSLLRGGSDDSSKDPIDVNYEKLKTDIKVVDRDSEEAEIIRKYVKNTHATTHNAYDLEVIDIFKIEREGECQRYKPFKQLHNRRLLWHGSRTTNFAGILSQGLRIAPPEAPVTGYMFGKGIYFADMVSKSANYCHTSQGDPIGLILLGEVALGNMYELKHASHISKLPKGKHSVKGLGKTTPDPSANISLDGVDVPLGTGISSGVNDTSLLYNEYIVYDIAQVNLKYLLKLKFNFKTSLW

`O=C(CCCN1CCOCC1)Nc1ccc2c(c1)-c1[nH]c(=O)c3ccccc3c1C2` [4-(morpholin-4-yl)-N-{8-oxo-9-azatetracyclo[8.7.0.0^{2,7}.0^{11,16}]heptadeca-1(10),2(7),3,5,11(16),12,14-heptaen-13-yl}butanamide] gave an IC50 of 400 nM.
Next, `C[N+]1(CCCNS(=O)(=O)c2ccc3c(c2)Cc2c-3[nH]c(=O)c3ccccc23)CCOCC1` [4-methyl-4-[3-({8-oxo-9-azatetracyclo[8.7.0.0^{2,7}.0^{11,16}]heptadeca-1(10),2(7),3,5,11(16),12,14-heptaene-14-}sulfonamido)propyl]morpholin-4-ium iodide]: 800 nM; `O=c1[nH]c2c(c3ccccc13)Cc1cc(S(=O)(=O)NN3CCOCC3)c(F)cc1-2` [13-fluoro-N-(morpholin-4-yl)-8-oxo-9-azatetracyclo[8.7.0.0^{2,7}.0^{11,16}]heptadeca-1(10),2(7),3,5,11(16),12,14-heptaene-14-sulfonamide]: 450 nM.
